Experimental data from patent publication US20090093473A1, “Spiro-benzimidazoles as inhibitors of gastric acid secretion” (priority 2005, published 2009).

Experiments:
[1] = tested on: pentagastrin-stimulated acid secretion of the perfused rat stomach; test: Secretion-inhibiting action on the perfused rat stomach (pentagastrin-stimulated acid secretion); type: in vivo; settings: intraduodenal, anesthetized CD rat, dose 1 μmol/kg i.d.
Source text: Testing of the Secretion-Inhibiting Action on the Perfused Rat Stomach
In Table A which follows, the influence of the compounds of the formula 1 according to the invention on the pentagastrin-stimulated acid secretion of the perfused rat stomach after intraduodenal administration in vivo is shown.
The abdomen of anesthetized rats (CD rat, female, 200-250 g; 1.5 g/kg i.m. urethane) was opened after tracheotomy by a median upper abdominal incision and a PVC catheter was fixed transorally in the esophagus and another via the pylorus such that the ends of the tubes just projected into the gastric lumen. The catheter leading from the pylorus led outward into the right abdominal wall through a side opening.
After thorough rinsing (about 50-100 ml), warm (37° C.) physiological NaCl solution was conbinuously passed through the stomach (0.5 ml/min, pH 6.8-6.9; Braun-Unita I). The pH (pH meter 632, glass electrode EA 147; φ=5 mm, Metrohm) and, by titration with a freshly prepared 0.01N NaOH solution to pH 7 (Dosimat 665 Metrohm), the secreted HCl were determined in the effluent in each case collected at an interval of 15 minutes.
The gastric secretion was stimulated by continuous infusion of 1 μg/kg (=1.65 mllh) of i.v. pentagastrin (left femoral vein) about 30 min after the end of the operation (i.e. after determination of 2 preliminary fractions). The substances to be tested were administered intraduodenally in a 2.5 ml/kg liquid volume 60 min after the start of the continuous pentagastrin infusion. The body temperature of the animals was kept at a constant 37.8-38° C. by infrared irradiation and heat pads (automatic, stepless control by means of a rectal temperature sensor).

melting point [°C] | Compound | inhibition in vivo at 1 µmol/kg [1] [%]
309 to 311 | CNC(=O)c1cc2c(nc(C)n2C)c2c1CCC1(Cc3ccccc3C1)N2.Cl | –
294 to 295 | COCCNC(=O)c1cc2c(nc(C)n2C)c2c1CCC1(Cc3ccccc3C1)N2.Cl | –
167 to 168 | CCOC(=O)c1cc2c(nc(C)n2C)c2c1CCC1(Cc3ccccc3C1)N2 [Example 1, Ethyl 2,3-dimethyl-1′,3,3′,6,7,9-hexahydrospiro[imidazo[4,5-h]quinoline-8,2′-indene]-5-carboxylate] | –
142 to 142.5 | C=CCn1c(C)nc2c3c(c(C(=O)OC)cc21)CCC1(Cc2ccccc2C1)N3 [Example 2, Methyl 3-allyl-2-methyl-1′,3,3′,6,7,9-hexahydrospiro[imidazo[4,5-h]quinoline-8,2′-indene]-5-carboxylate] | –
150 | C=CCn1c(C)nc2c3c(c(C(=O)OCC)cc21)CCC1(Cc2ccccc2C1)N3 [Example 3, Ethyl 3-allyl-2-methyl-1′,3,3′,6,7,9-hexahydrospiro[imidazo[4,5-h]quinoline-8,2′-indene]-5-carboxylate] | –
237 to 238 | CNC(=O)c1cc2c(nc(C)n2C)c2c1CCC1(Cc3ccccc3C1)N2 [Example 4, N,2,3-Trimethyl-1′,3,3′,6,7,9-hexahydrospiro[imidazo[4,5-h]quinoline-8,2′-indene]-5-carboxamide] | > 80
272 to 274 | Cc1nc2c3c(c(CO)cc2n1C)CCC1(Cc2ccccc2C1)N3 [Example 6, (2,3-Dimethyl-1′,3,3′,6,7,9-hexahydrospiro[imidazo[4,5-h]quinoline-8,2′-inden]-5-yl)-methanol] | –
240 to 241 | CNC(=O)c1cc2[nH]c(C)nc2c2c1CCC1(Cc3ccccc3C1)N2 [Example 9, N,2-dimethyl-1′,3,3′,6,7,9-hexahydrospiro[imidazo[4,5-h]quinoline-8,2′-indene]-5-carboxamide] | –
183 | Cc1nc2c3c(c(C(=O)N(C)C)cc2[nH]1)CCC1(Cc2ccccc2C1)N3 [Example 10, N,N,2-Trimethyl-1′,3,3′,6,7,9-hexahydrospiro[imidazo[4,5-h]quinoline-8,2′-indene]-5-carboxamide] | –
178 to 179 | Cc1nc2c3c(c(C(=O)N(C)C)cc2n1C)CCC1(Cc2ccccc2C1)N3 [Example 11, N,N,2,3-tetramethyl-1′,3,3′,6,7,9-hexahydrospiro[imidazo[4,5-h]quinoline-8,2′-indene]-5-carboxamide] | > 80
194 to 195 | Cc1nc2c3c(c(C(=O)N(C)CCO)cc2n1C)CCC1(Cc2ccccc2C1)N3 [Example 12, N-(2-hydroxyethyl)-N,2,3-trimethyl-1′,3,3′,6,7,9-hexahydrospiro[imidazo[4,5-h]quinoline-8,2′-indene]-5-carboxamide] | –
171 to 172 | Cc1nc2c3c(c(C(=O)N4CC(O)C4)cc2n1C)CCC1(Cc2ccccc2C1)N3 [Example 13, 1-[(2,3-dimethyl-1′,3,3′,6,7,9-hexahydrospiro[imidazo[4,5-h]quinoline-8,2′-inden]-5-yl)-carbonyl]azetidin-3-ol] | –
222 to 223 | CC(=O)CNC(=O)c1cc2c(nc(C)n2C)c2c1CCC1(Cc3ccccc3C1)N2 [Example 14, 2,3-dimethyl-N-(2-oxopropyl)-1′,3,3′,6,7,9-hexahydrospiro[imidazo[4,5-h]quinoline-8,2′-indene]-5-carboxamide] | > 80
259 to 260 | Cc1nc2c3c(c(C(=O)N4CC(F)C4)cc2n1C)CCC1(Cc2ccccc2C1)N3 [Example 15, 5-[(3-fluoroazetidin-1-yl)carbonyl]-2,3-dimethyl-1′,3,3′,6,7,9-hexahydrospiro[imidazo[4,5-h]quinoline-8,2′-indene]] | > 80
186 to 187 | COCCNC(=O)c1cc2c(nc(C)n2C)c2c1CCC1(Cc3ccccc3C1)N2 [Example 16, N-(2-methoxyethyl)-2,3-dimethyl-1′,3,3′,6,7,9-hexahydrospiro[imidazo[4,5-h]quinoline-8,2′-indene]-5-carboxamide] | > 80
167 to 168 | Cc1nc2c3c(c(C(=O)NCCO)cc2n1C)CCC1(Cc2ccccc2C1)N3 [Example 17, N-(2-hydroxyethyl)-2,3-dimethyl-1′,3,3′,6,7,9-hexahydrospiro[imidazo[4,5-h]quinoline-8,2′-indene]-5-carboxamide] | –
272 to 273 | Cc1nc2c3c(c(C(N)=O)cc2n1C)CCC1(Cc2ccccc2C1)N3 [Example 18, 2,3-dimethyl-1′,3,3′,6,7,9-hexahydrospiro[imidazo[4,5-h]quinoline-8,2′-indene]-5-carboxamide] | > 80
258 to 259 | Cc1nc2c3c(c(C(=O)N(C)C[C@H](C)O)cc2n1C)CCC1(Cc2ccccc2C1)N3 [Example 19, N-[(2S)-2-hydroxypropyl]-N,2,3-trimethyl-1′,3,3′,6,7,9-hexahydrospiro[imidazo[4,5-h]-quinoline-8,2′-indene]-5-carboxamide] | –
224 to 225 | Cc1nc2c3c(c(C(=O)NC[C@H](C)O)cc2n1C)CCC1(Cc2ccccc2C1)N3 [Example 20, N-[(2S)-2-hydroxypropyl]-2,3-dimethyl-1′,3,3′,6,7,9-hexahydrospiro[imidazo[4,5-h]-quinoline-8,2′-indene]-5-carboxamide] | –
160 to 161 | COCCN(C)C(=O)c1cc2c(nc(C)n2C)c2c1CCC1(Cc3ccccc3C1)N2 [Example 21, N-(2-methoxyethyl)-N,2,3-trimethyl-1′,3,3′,6,7,9-hexahydrospiro[imidazo[4,5-h]quinoline-8,2′-indene]-5-carboxamide] | > 80
263 to 264 | Cc1nc2c3c(c(C(=O)N4CCCC4)cc2n1C)CCC1(Cc2ccccc2C1)N3 [Example 22, 2,3-dimethyl-5-(pyrrolidin-1-ylcarbonyl)-1′,3,3′,6,7,9-hexahydrospiro[imidazo[4,5-h]-quinoline-8,2′-indene]] | > 80
237 to 238 | Cc1nc2c3c(c(C(=O)NCCCO)cc2n1C)CCC1(Cc2ccccc2C1)N3 [Example 26, N-(3-hydroxypropyl)-2,3-dimethyl-1′,3,3′,6,7,9-hexahydrospiro[imidazo[4,5-h]quinoline-8,2′-indene]-5-carboxamide] | –
321 to 324 | CNC(=O)c1cc2c(nc(C)n2C)c2c1CCC1(Cc3ccccc3C1)N2.CS(=O)(=O)O [Example 28, N,2,3-Trimethyl-1′,3,3′,6,7,9-hexahydrospiro[imidazo[4,5-h]quinoline-8,2′-indene]-5-carboxamide methanesulphonate] | –
261 to 263 | CNC(=O)c1cc2c(nc(C)n2C)c2c1CCC1(Cc3ccccc3C1)N2.O=C(O)CC(=O)O [Example 30, N,2,3-Trimethyl-1′,3,3′,6,7,9-hexahydrospiro[imidazo[4,5-h]quinoline-8,2′-indene]-5-carboxamide malonate] | –
180 to 181 | CCOCCNC(=O)c1cc2c(nc(C)n2C)c2c1CCC1(Cc3ccccc3C1)N2 [Example 31, N-(2-ethoxyethyl)-2,3-dimethyl-1′,3,3′,6,7,9-hexahydrospiro[imidazo[4,5-h]quinoline-8,2′-indene]-5-carboxamide] | –
223 to 224 | CCNC(=O)c1cc2c(nc(C)n2C)c2c1CCC1(Cc3ccccc3C1)N2 [Example 32, N-ethyl-2,3-dimethyl-1′,3,3′,6,7,9-hexahydrospiro[imidazo[4,5-h]quinoline-8,2′-indene]-5-carboxamide] | –
191 to 192 | COCCNC(=O)c1cc2c(nc(C)n2C)c2c1CCC1(Cc3ccccc3C1)N2.O=C(O)/C=C\C(=O)O [Example 33, N-(2-methoxyethyl)-2,3-dimethyl-1′,3,3′,6,7,9-hexahydrospiro[imidazo[4,5-h]quinoline-8,2′-indene]-5-carboxamide maleate] | –
176 to 177 | COCCNC(=O)c1cc2c(nc(C)n2C)c2c1CCC1(Cc3ccccc3C1)N2.O=C(O)CC(=O)O [Example 34, N-(2-methoxyethyl)-2,3-dimethyl-1′,3,3′,6,7,9-hexahydrospiro[imidazo[4,5-h]quinoline-8,2′-indene]-5-carboxamide malonate] | –
242 to 243 | Cc1nc2c3c(c(C(=O)NC4CC4)cc2n1C)CCC1(Cc2ccccc2C1)N3.O=C(O)C(=O)O [Example 36, N-cyclopropyl-2,3-dimethyl-1′,3,3′,6,7,9-hexahydrospiro[imidazo[4,5-h]quinoline-8,2′-indene]-5-carboxamide oxalate] | –
308 to 309 | CS(=O)(=O)O.Cc1nc2c3c(c(C(=O)NC4CC4)cc2n1C)CCC1(Cc2ccccc2C1)N3 [Example 37, N-cyclopropyl-2,3-dimethyl-1′,3,3′,6,7,9-hexahydrospiro[imidazo[4,5-h]quinoline-8,2′-indene]-5-carboxamide methanesulphonate] | –
